13 molecules from ChEMBL document CHEMBL3352227, “Synthesis, antimycobacterial and antibacterial evaluation of l-[(1R, 2S)-2-fluorocyclopropyl]fluoroquinolone derivatives containing an oxime functional moiety” (Eur J Med Chem, 2014) can be followed below.

In experiment [1] the test system is Mycobacterium tuberculosis. The experiment in a line: Antimycobacterial activity against isoniazid and rifampicin resistant Mycobacterium tuberculosis 6133 by MABA method. The class given is functional. (The colour change of resazurin is a common sign of viable cells or microbes.)
Experiment [2] deals with Mycobacterium tuberculosis. The experiment in a line: Antimycobacterial activity against isoniazid and rifampicin resistant Mycobacterium tuberculosis 11277 by MABA method. The format is functional.

The structures appear in SMILES notation. Converted amounts (≈) assume the structure as drawn.

As to `O=C(O)c1cn(C2CC2)c2cc(N3CCNCC3)c(F)cc2c1=O` [CIPROFLOXACIN], the MIC in experiment [1] and in experiment [2] was 0.125 µg/mL (≈ 0.377 µM) in each case.
As to `CO/N=C1/CN(c2cc3c(cc2F)c(=O)c(C(=O)O)cn3[C@@H]2C[C@@H]2F)[C@H]1CN`, the MIC in experiment [1] was 0.125 µg/mL (≈ 0.319 µM); in experiment [2], 0.25 µg/mL (≈ 0.637 µM).
With `C[C@H]1COc2c(N3CCN(C)CC3)c(F)cc3c(=O)c(C(=O)O)cn1c23.C[C@H]1COc2c(N3CCN(C)CC3)c(F)cc3c(=O)c(C(=O)O)cn1c23.O` [LEVOFLOXACIN], the MIC in experiment [1] and in experiment [2] was 0.125 µg/mL each time.
With `NC[C@H]1/C(=N\OCc2ccccc2)CN1c1cc2c(cc1F)c(=O)c(C(=O)O)cn2[C@@H]1C[C@@H]1F`, the results for the minimal inhibitory concentration (MIC) in experiment [1] and in experiment [2] were 0.25 µg/mL (≈ 0.534 µM) and 0.5 µg/mL (≈ 1.07 µM), respectively.
Turning to `CO/N=C1/CN(c2c(F)cc3c(=O)c(C(=O)O)cn([C@@H]4C[C@@H]4F)c3c2OC)[C@H]1CN`, the results for the minimum inhibitory concentration (MIC) in experiment [1] and in experiment [2] were 0.125 µg/mL (≈ 0.296 µM) and 0.25 µg/mL (≈ 0.592 µM), respectively.
As to `CO/N=C1/CN(c2nc3c(cc2F)c(=O)c(C(=O)O)cn3[C@@H]2C[C@@H]2F)CC1CN` (stereo partly specified), the MIC in experiment [1] came to 0.125 µg/mL (≈ 0.307 µM); in experiment [2] it was 0.25 µg/mL (≈ 0.614 µM).
The like results for `NNC(=O)c1ccncc1` [ISONIAZID] were, in that order, 4 µg/mL (≈ 29.2 µM) and 1 µg/mL (≈ 7.29 µM).
On to `NCC1CN(c2cc3c(cc2F)c(=O)c(C(=O)O)cn3[C@@H]2C[C@@H]2F)C/C1=N/OCc1ccccc1` (stereo partly specified), for which the values for the MIC in experiment [1] and in experiment [2] were 0.125 µg/mL (≈ 0.259 µM) and 0.25 µg/mL (≈ 0.518 µM), respectively.
`NCC1CN(c2nc3c(cc2F)c(=O)c(C(=O)O)cn3[C@@H]2C[C@@H]2F)C/C1=N/OCc1ccccc1` (stereo partly specified): the minimal inhibitory concentration (MIC) in experiment [1] was 0.125 µg/mL (≈ 0.259 µM); in experiment [2] it was 0.5 µg/mL (≈ 1.03 µM).
The like results for `CCO/N=C1/CN(c2cc3c(cc2F)c(=O)c(C(=O)O)cn3[C@@H]2C[C@@H]2F)CC1CN` (stereo partly specified) were, in that order, 0.125 µg/mL (≈ 0.297 µM) and 0.125 µg/mL (≈ 0.297 µM).
Turning to `CO[C@H]1/C=C/O[C@@]2(C)Oc3c(C)c(O)c4c(O)c(c(/C=N/N5CCN(C)CC5)c(O)c4c3C2=O)NC(=O)/C(C)=C\C=C\[C@H](C)[C@H](O)[C@@H](C)[C@@H](O)[C@@H](C)[C@H](OC(C)=O)[C@@H]1C` [RIFAMPIN], the MIC in experiment [1] and in experiment [2] was greater than 40 µg/mL each time.
For the molecule `CCO/N=C1/CN(c2nc3c(cc2F)c(=O)c(C(=O)O)cn3[C@@H]2C[C@@H]2F)CC1CN` (stereo partly specified), the MIC in experiment [1] and in experiment [2] was 0.125 µg/mL (≈ 0.297 µM) throughout.
Turning to `CO/N=C1/CCN(c2c(F)cc3c(=O)c(C(=O)O)cn([C@@H]4C[C@@H]4F)c3c2OC)CC1N` (stereo partly specified), the MIC in experiment [1] stood at 0.0625 µg/mL (≈ 0.143 µM); in experiment [2], 0.125 µg/mL (≈ 0.286 µM).

As usually defined, the MIC is the smallest concentration in the dilution series that meets the test's criterion for growth inhibition. A lower MIC goes with greater potency.
